Test results published in PMC10562414, “GLP-1R signaling neighborhoods associate with the susceptibility to adverse drug reactions of incretin mimetics” (Nature Communications, 2023).

Legend:
GLP-1R [1] = target: T1, GLP-1R (Homo sapiens, UniProt P43220); test: ebBRET pathway activation (effector membrane translocation, 15 pathways) at the plasma membrane (rGFP-CAAX); type: cell-based; set-up: Potency (logEC50): scale not given here; details: for Efficacy (normalized) / Potency (logEC50) / Emax: Plasma membrane; for Efficacy (normalized): Fig. 2c; for Potency (logEC50): Fig. 2d
T1 sequence (P43220 24-463): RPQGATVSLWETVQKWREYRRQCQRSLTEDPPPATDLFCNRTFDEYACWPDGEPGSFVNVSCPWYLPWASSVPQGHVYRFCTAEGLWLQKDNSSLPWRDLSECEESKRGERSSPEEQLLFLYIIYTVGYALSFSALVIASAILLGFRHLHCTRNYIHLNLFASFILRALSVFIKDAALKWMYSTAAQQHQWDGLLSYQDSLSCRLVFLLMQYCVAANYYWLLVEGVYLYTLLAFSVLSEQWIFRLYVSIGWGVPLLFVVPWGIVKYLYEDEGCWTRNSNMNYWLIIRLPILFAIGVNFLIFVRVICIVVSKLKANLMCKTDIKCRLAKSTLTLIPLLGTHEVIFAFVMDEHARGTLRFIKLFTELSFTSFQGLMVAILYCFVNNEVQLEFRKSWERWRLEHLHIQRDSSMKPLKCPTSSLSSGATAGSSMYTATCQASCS

GLP-1R [2] = target: T1, GLP-1R; test: ebBRET pathway activation (15 pathways), Supplementary Fig. 14; compartment not given; type: cell-based
[3] = plasma membrane rGFP-CAAX, HEK293, PDZRhoGEF-RlucII, agonist incubation 0 min, as tabulated for polar area diagram, n=3-6
[4] = plasma membrane rGFP-CAAX, HEK293, Rap1Gap-RlucII, agonist incubation 0 min, as tabulated for polar area diagram, n=3-6
[5] = plasma membrane rGFP-CAAX, HEK293, Rap1Gap-RlucII, agonist incubation 0 min, normalized to the highest responding drug, F test P < 0.00625, n=3-6
[6] = plasma membrane rGFP-CAAX, HEK293, p63RhoGEF-RlucII, agonist incubation 0 min, as tabulated for polar area diagram, n=3-6
[7] = plasma membrane rGFP-CAAX, HEK293, p63RhoGEF-RlucII, agonist incubation 0 min, normalized to the highest responding drug, F test P < 0.00625, n=3-6

N#Cc1ccc(COc2cccc(C3CCN(Cc4nc5ccc(C(=O)O)cc5n4C[C@@H]4CCO4)CC3)n2)c(F)c1 [Danuglipron]
1: Efficacy (normalized), Gαz (GLP-1R [2]; Gαz, Supplementary Fig. 14a, normalized)
0.4339: Potency (logEC50), βARR2 (GLP-1R [2]; βARR2, Supplementary Fig. 14b)
0.5221: Potency (logEC50) (GLP-1R [1]; Gαs) | Potency (logEC50), Gαs (GLP-1R [1]; plasma membrane rGFP-CAAX, HEK293, Rluc8-mGs, agonist incubation 0 min, as tabulated for polar area diagram, n=3-6)
0.4329: Emax (GLP-1R [1]; GαoB)
0.8077: Efficacy (normalized), Gαs (GLP-1R [2]; Gαs, Supplementary Fig. 14a, normalized)
0.3729: Efficacy (normalized), Gαi1 (GLP-1R [1]; [5])
0.4942: Efficacy (normalized), βARR2 (GLP-1R [2]; βARR2, Supplementary Fig. 14a, normalized)
0.2947: Efficacy (normalized) (GLP-1R [1]; βARR2) | Efficacy (normalized), βARR2 (GLP-1R [1]; plasma membrane rGFP-CAAX, HEK293, β-arrestin-2-RlucII, agonist incubation 0 min, normalized to the highest responding drug, F test P < 0.00625, n=3-6)
0.9309: Efficacy (normalized), Gαi2 (GLP-1R [1]; [5])
0.5975: Efficacy (normalized) (GLP-1R [1]; GαoB) | Efficacy (normalized), GαoB (GLP-1R [1]; [5])
0.6445: Efficacy (normalized) (GLP-1R [1]; Gαi3) | Efficacy (normalized), Gαi3 (GLP-1R [1]; [5])
0.6954: Efficacy (normalized), GRK2/Gβγ (GLP-1R [1]; plasma membrane rGFP-CAAX, HEK293, GRK2-D110A-RlucII, agonist incubation 0 min, normalized to the highest responding drug, F test P < 0.00625, n=3-6)
0.3391: Potency (logEC50) (GLP-1R [1]; Gαz) | Potency (logEC50), Gαz (GLP-1R [1]; [4])
0.326: Potency (logEC50) (GLP-1R [1]; GαoB) | Potency (logEC50), GαoB (GLP-1R [1]; [4])
0: Emax (GLP-1R [1]; GαoA) | Efficacy (normalized) (GLP-1R [1]; GαoA) | Potency (logEC50) (GLP-1R [1]; GαoA) | Emax (GLP-1R [1]; Gαq) | Efficacy (normalized) (GLP-1R [1]; Gαq) | Potency (logEC50) (GLP-1R [1]; Gαq) | Potency (logEC50), Gα12 (GLP-1R [1]; [3]) | Potency (logEC50), Gα13 (GLP-1R [1]; [3]) | Efficacy (normalized), Gα13 (GLP-1R [1]; plasma membrane rGFP-CAAX, HEK293, PDZRhoGEF-RlucII, agonist incubation 0 min, normalized to the highest responding drug, F test P < 0.00625, n=3-6) | Potency (logEC50), GαoA (GLP-1R [1]; [4]) | Efficacy (normalized), GαoA (GLP-1R [1]; [5]) | Potency (logEC50), Gα11 (GLP-1R [1]; [6]) | Potency (logEC50), Gα14 (GLP-1R [1]; [6]) | Potency (logEC50), Gα15 (GLP-1R [1]; [6]) | Potency (logEC50), Gαq (GLP-1R [1]; [6]) | Efficacy (normalized), Gα11 (GLP-1R [1]; [7]) | Efficacy (normalized), Gα14 (GLP-1R [1]; [7]) | Efficacy (normalized), Gα15 (GLP-1R [1]; [7]) | Efficacy (normalized), Gαq (GLP-1R [1]; [7]) | Efficacy (normalized), GRK2/Gβγ (GLP-1R [2]; GRK2/Gβγ, Supplementary Fig. 14a, normalized) | Efficacy (normalized), Gα11 (GLP-1R [2]; Gα11, Supplementary Fig. 14a, normalized) | Potency (logEC50), Gα11 (GLP-1R [2]; Gα11, Supplementary Fig. 14b) | Efficacy (normalized), Gα12 (GLP-1R [2]; Gα12, Supplementary Fig. 14a, normalized) | Potency (logEC50), Gα12 (GLP-1R [2]; Gα12, Supplementary Fig. 14b) | Efficacy (normalized), Gα13 (GLP-1R [2]; Gα13, Supplementary Fig. 14a, normalized) | Potency (logEC50), Gα13 (GLP-1R [2]; Gα13, Supplementary Fig. 14b) | Efficacy (normalized), Gα14 (GLP-1R [2]; Gα14, Supplementary Fig. 14a, normalized) | Potency (logEC50), Gα14 (GLP-1R [2]; Gα14, Supplementary Fig. 14b) | Efficacy (normalized), Gα15 (GLP-1R [2]; Gα15, Supplementary Fig. 14a, normalized) | Potency (logEC50), Gα15 (GLP-1R [2]; Gα15, Supplementary Fig. 14b) | Efficacy (normalized), Gαi1 (GLP-1R [2]; Gαi1, Supplementary Fig. 14a, normalized) | Potency (logEC50), Gαi1 (GLP-1R [2]; Gαi1, Supplementary Fig. 14b) | Efficacy (normalized), Gαi2 (GLP-1R [2]; Gαi2, Supplementary Fig. 14a, normalized) | Potency (logEC50), Gαi2 (GLP-1R [2]; Gαi2, Supplementary Fig. 14b) | Efficacy (normalized), Gαi3 (GLP-1R [2]; Gαi3, Supplementary Fig. 14a, normalized) | Potency (logEC50), Gαi3 (GLP-1R [2]; Gαi3, Supplementary Fig. 14b) | Efficacy (normalized), GαoA (GLP-1R [2]; GαoA, Supplementary Fig. 14a, normalized) | Potency (logEC50), GαoA (GLP-1R [2]; GαoA, Supplementary Fig. 14b) | Efficacy (normalized), GαoB (GLP-1R [2]; GαoB, Supplementary Fig. 14a, normalized) | Potency (logEC50), GαoB (GLP-1R [2]; GαoB, Supplementary Fig. 14b) | Efficacy (normalized), Gαq (GLP-1R [2]; Gαq, Supplementary Fig. 14a, normalized) | Potency (logEC50), Gαq (GLP-1R [2]; Gαq, Supplementary Fig. 14b)
1.832: Emax (GLP-1R [1]; Gαs)
0.3182: Potency (logEC50), Gαi1 (GLP-1R [1]; [4])
0.1266: Potency (logEC50), Gαi2 (GLP-1R [1]; [4])
0.2013: Emax (GLP-1R [1]; Gαz)
0.517: Potency (logEC50), Gαz (GLP-1R [2]; Gαz, Supplementary Fig. 14b)
0.7638: Potency (logEC50), Gαs (GLP-1R [2]; Gαs, Supplementary Fig. 14b)
0.2454: Potency (logEC50) (GLP-1R [1]; Gαi3) | Potency (logEC50), Gαi3 (GLP-1R [1]; [4])
0.7714: Efficacy (normalized) (GLP-1R [1]; Gαs) | Efficacy (normalized), Gαs (GLP-1R [1]; plasma membrane rGFP-CAAX, HEK293, Rluc8-mGs, agonist incubation 0 min, normalized to the highest responding drug, F test P < 0.00625, n=3-6)
0.3843: Emax (GLP-1R [1]; βARR)
0.678: Efficacy (normalized) (GLP-1R [1]; Gαz) | Efficacy (normalized), Gαz (GLP-1R [1]; [5])
